According to US20050124562A1, “Bis-quinazoline compounds for the treatment of bacterial infections” (priority 2003, published 2005):
≈ marks a conversion by molar mass, not a printed value.

What follows are molecules tested on S. aureus, E. faecalis, S. pyogenes and S. pneumoniae (assay: Broth microdilution MIC (NCCLS), gram-positive strains). Settings: not given.
Assay type: cell-based
Procedure: Representative bis-quinazolines were tested for antibacterial activity using the […] microdilution method to determine their minimum inhibitory concentrations (MICs). All compounds were tested using standard methods in accordance with NCCLS guidelines (National Committee for Clinical Laboratory Standards. 2003. Methods for dilution antimicrobial susceptibility testing for bacteria that grow aerobically. Approved Standard M-7 A-6, NCCLS, Wayne, Pa.). The bacterial strains used in the susceptibility tests were obtained from the American Type Culture Collection (ATCC) and included resistant phenotypes such as oxacillin-resistant S. aureus (ORSA) and vancomycin-resistant enterococci (VRE). The minimum bactericidal concentrations (MBCs) were determined for selected organisms. The effect of protein binding on the antibacterial activity of representative bis-quinazolines were determined by conducting MIC tests in the presence of human serum.

Row | Compound | MIC [µg/mL]
1 | COc1cccc2c(O)nc(Nc3nc(C)c4ccc5c(c4n3)OCCO5)nc12 [Example 82, 8-Methoxy-2-(8-methyl-2,3-dihydro-1,4-dioxa-5,7-diaza-phenanthren-6-ylamino)-quinazolin-4-ol] | 0.06 to 16 (≈ 0.153 to 40.9 µM)

Same assay, conditions: range against some strains of S. aureus, E. faecalis, S. pyogenes and S. pneumoniae; read-out: MIC

Row | Compound | MIC [µg/mL]
2 | COc1cc(OC)c2nc(Nc3nc(O)c4cc(C)cc(C)c4n3)nc(C)c2c1.O=C(O)C(F)(F)F [Example 75, 2-(6,8-Dimethoxy-4-methyl-quinazolin-2-ylamino)-6,8-dimethyl-quinazolin-4-ol trifluoroacetate salt] | 0.06 to 16
3 | COc1cc2c(C)nc(Nc3nc(O)c4cccc(OC)c4n3)nc2cc1N.O=C(O)C(F)(F)F [Example 76, 2-(6-methoxy-7-amino-4-methyl-quinazolin-2-ylamino)-8-methoxy-quinazolin-4-ol trifluoroacetate salt] | 0.06 to 16
4 | COc1ccc2c(C)nc(Nc3nc(O)c4cccc(OC)c4n3)nc2c1OC.O=C(O)C(F)(F)F [Example 78, 2-(7,8-Dimethoxy-4-methyl-quinazolin-2-ylamino)-8-methoxy-quinazolin-4-ol trifluoroacetate salt] | 0.06 to 16
5 | COCCOc1cc(OC)cc2c(C)nc(Nc3nc(O)c4cccc(OC)c4n3)nc12.O=C(O)C(F)(F)F [Example 79, 8-Methoxy-2-[6-methoxy-8-(2-methoxy-ethoxy)-4-methyl-quinazolin-2-ylamino]-quinazolin-4-ol trifluoroacetate salt] | 0.06 to 16
6 | COCCOc1ccc2nc(Nc3nc(O)c4cccc(OC)c4n3)nc(C)c2c1.O=C(O)C(F)(F)F [Example 80, 8-Methoxy-2-[6-(2-methoxy-ethoxy)-4-methyl-quinazolin-2-ylamino]-quinazolin-4-ol trifluoroacetate salt] | 0.06 to 16
7 | COCCOc1c(OC)ccc2c(C)nc(Nc3nc(O)c4cccc(OC)c4n3)nc12.O=C(O)C(F)(F)F [Example 81, 8-Methoxy-2-[7-methoxy-8-(2-methoxy-ethoxy)-4-methyl-quinazolin-2-ylamino]-quinazolin-4-ol trifluoroacetate salt] | 0.06 to 16
8 | COc1cc(OC)c2nc(Nc3nc(O)c4c(OC)ccc(OC)c4n3)nc(C)c2c1.O=C(O)C(F)(F)F [Example 100, 2-(6,8-Dimethoxy-4-methyl-quinazolin-2-ylamino)-5,8-dimethoxy-quinazolin-4-ol trifluoroacetate salt] | 0.06 to 16
9 | COc1cc2c(C)nc(Nc3nc(O)c4cccc(OC)c4n3)nc2cc1O.O=C(O)C(F)(F)F [Example 103, 2-(4-Hydroxy-8-methoxy-quinazolin-2-ylamino)-6-methoxy-4-methyl-quinazolin-7-ol trifluoroacetate salt] | 0.06 to 16
10 | COc1cc2nc(Nc3nc(O)c4cc(OCCCl)ccc4n3)nc(C)c2cc1OC.O=C(O)C(F)(F)F [Example 105, 6-(2-Chloro-ethoxy)-2-(6,7-dimethoxy-4-methyl-quinazolin-2-ylamino)-quinazolin-4-ol trifluoroacetate salt] | 0.06 to 16
11 | COc1cc(OC)c2nc(Nc3nc(O)c4cc(OCCCl)ccc4n3)nc(C)c2c1.O=C(O)C(F)(F)F [Example 107, 6-(2-Chloro-ethoxy)-2-(6,8-dimethoxy-4-methyl-quinazolin-2-ylamino)-quinazolin-4-ol trifluoroacetate salt] | 0.06 to 16
12 | COc1cc2nc(Nc3nc(O)c4c5c(ccc4n3)OCO5)nc(C)c2cc1OC.O=C(O)C(F)(F)F [Example 109, 7-(6,7-Dimethoxy-4-methyl-quinazolin-2-ylamino)-1,3-dioxa-6,8-diaza-cyclopenta[a]naphthalen-9-ol trifluoroacetate salt] | 0.06 to 16
13 | COc1cc(OC)c2nc(Nc3nc(O)c4c(OC(C)C)cccc4n3)nc(C)c2c1.O=C(O)C(F)(F)F [Example 111, 2-(6,8-Dimethoxy-4-methyl-quinazolin-2-ylamino)-5-isopropoxy-quinazolin-4-ol trifluoroacetate salt] | 0.06 to 16
14 | CCOc1cccc2nc(Nc3nc(C)c4cc(OC)cc(OC)c4n3)nc(O)c12.O=C(O)C(F)(F)F [Example 112, 2-(6,8-Dimethoxy-4-methyl-quinazolin-2-ylamino)-5-ethoxy-quinazolin-4-ol trifluoroacetate salt] | 0.06 to 16
15 | COc1cc2nc(Nc3nc(O)c4cc(N5CCOCC5)ccc4n3)nc(C)c2cc1OC.O=C(O)C(F)(F)F [Example 114, 2-(6,7-Dimethoxy-4-methyl-quinazolin-2-ylamino)-6-morpholin-4-yl-quinazolin-4-ol trifluoroacetate salt] | 0.06 to 16
16 | COc1cc2c(C)nc(Nc3nc(O)c4cccc(OC)c4n3)nc2c(OC)c1OC.O=C(O)C(F)(F)F [Example 116, 8-Methoxy-2-(6,7,8-trimethoxy-4-methyl-quinazolin-2-ylamino)-quinazolin-4-ol trifluoroacetate salt] | 0.06 to 16
17 | COc1cccc2c(O)nc(Nc3nc(C)c4ccc(F)c(OC)c4n3)nc12.O=C(O)C(F)(F)F [Example 117, 2-(7-Fluoro-8-methoxy-4-methyl-quinazolin-2-ylamino)-8-methoxy-quinazolin-4-ol trifluoroacetate salt] | 0.06 to 16

Row | Compound | MIC [µg/mL]
18 | COc1cc2c(C)nc(Nc3nc(O)c4cccc(F)c4n3)nc2c(OC)c1OC.O=C(O)C(F)(F)F [Example 118, 8-Fluoro-2-(6,7,8-trimethoxy-4-methyl-quinazolin-2-ylamino)-quinazolin-4-ol trifluoroacetate salt] | 0.06 to 16
19 | COc1c(F)ccc2c(C)nc(Nc3nc(O)c4cccc(F)c4n3)nc12.O=C(O)C(F)(F)F [Example 119, 8-Fluoro-2-(7-fluoro-8-methoxy-4-methyl-quinazolin-2-ylamino)-quinazolin-4-ol trifluoroacetate salt] | 0.06 to 16
20 | COc1ccc2nc(Nc3nc(O)c4cc(N)cc(OC)c4n3)nc(C)c2c1.O=C(O)C(F)(F)F [Example 123, 6-Amino-2-(6-methoxy-4-methyl-quinazolin-2-ylamino)-8-methoxy-quinazolin-4-ol trifluoroacetate salt] | 0.06 to 16
21 | COc1cc(OC)c2nc(Nc3nc(O)c4cc(N)cc(OC)c4n3)nc(C)c2c1.O=C(O)C(F)(F)F [Example 124, 6-Amino-2-(6,8-dimethoxy-4-methyl-quinazolin-2-ylamino)-8-methoxy-quinazolin-4-ol trifluoroacetate salt] | 0.06 to 16
22 | COc1cc(OC)c2nc(Nc3nc(O)c4cc(N)cc(C)c4n3)nc(C)c2c1.O=C(O)C(F)(F)F [Example 126, 6-Amino-2-(6,8-dimethoxy-4-methyl-quinazolin-2-ylamino)-8-methyl-quinazolin-4-ol trifluoroacetate salt] | 0.06 to 16
23 | COc1cc2c(C)nc(Nc3nc(O)c4cccc(OC)c4n3)nc2cc1N(C)C.O=C(O)C(F)(F)F [Example 127, 2-(7-Dimethylamino-6-methoxy-4-methyl-quinazolin-2-ylamino)-8-methoxy-quinazolin-4-ol trifluoroacetate salt] | 0.06 to 16
24 | COc1cc2nc(Nc3nc(O)c4c(N(C)C)cccc4n3)nc(C)c2cc1OC.O=C(O)C(F)(F)F [Example 128, 2-(6,7-Dimethoxy-4-methyl-quinazolin-2-ylamino)-5-dimethylamino-quinazolin-4-ol trifluoroacetate salt] | 0.06 to 16
25 | COc1cc(OC)c2nc(Nc3nc(O)c4c5c(ccc4n3)OCO5)nc(C)c2c1.O=C(O)C(F)(F)F [Example 130, 7-(6,8-Dimethoxy-4-methyl-quinazolin-2-ylamino)-1,3-dioxa-6,8-diaza-cyclopenta[a]naphthalen-9-ol trifluoroacetate salt] | 0.06 to 16
26 | COc1cc(OC)c2nc(Nc3nc(O)c4c(OC)c(OC)ccc4n3)nc(C)c2c1.O=C(O)C(F)(F)F [Example 134, 2-(6,8-Dimethoxy-4-methyl-quinazolin-2-ylamino)-5,6-dimethoxy-quinazolin-4-ol TFA salt] | 0.06 to 16
27 | COc1cc(OC)c2nc(Nc3nc(O)c4c(OC)c(OC)ccc4n3)nc(C)c2c1.Cl [Example 135, 2-(6,8-Dimethoxy-4-methyl-quinazolin-2-ylamino)-5,6-dimethoxy-quinazolin-4-ol HCl salt] | 0.06 to 16
28 | COc1cc2nc(Nc3nc(O)c4cc(OCCO)ccc4n3)nc(C)c2cc1OC.O=C(O)C(F)(F)F [Example 136, 2-(6,7-Dimethoxy-4-methyl-quinazolin-2-ylamino)-6-(2-hydroxy-ethoxy)-quinazolin-4-ol trifluoroacetate salt] | 0.06 to 16
29 | COc1cc(OC)c2nc(Nc3nc(O)c4cc(OCCO)ccc4n3)nc(C)c2c1.O=C(O)C(F)(F)F [Example 137, 2-(6,8-Dimethoxy-4-methyl-quinazolin-2-ylamino)-6-(2-hydroxy-ethoxy)-quinazolin-4-ol trifluoroacetate salt] | 0.06 to 16
30 | COc1cc2nc(Nc3nc(O)c4cc(OCCN(C)CCO)ccc4n3)nc(C)c2cc1OC.O=C(O)C(F)(F)F [Example 139, 2-(6,7-Dimethoxy-4-methyl-quinazolin-2-ylamino)-6-{2-[(2-hydroxy-ethyl)-methyl-amino]-ethoxy}-quinazolin-4-ol trifluoroacetate salt] | 0.06 to 16
31 | COc1cc(OC)c2nc(Nc3nc(O)c4cc(OCCN5CCOCC5)ccc4n3)nc(C)c2c1.O=C(O)C(F)(F)F [Example 141, 2-(6,8-Dimethoxy-4-methyl-quinazolin-2-ylamino)-6-(2-morpholin-4-yl-ethoxy)-quinazolin-4-ol trifluoroacetate salt] | 0.06 to 16
32 | CCN(CCO)CCOc1ccc2nc(Nc3nc(C)c4cc(OC)cc(OC)c4n3)nc(O)c2c1.O=C(O)C(F)(F)F [Example 167, 2-(6,8-Dimethoxy-4-methyl-quinazolin-2-ylamino)-6-{2-[ethyl-(2-hydroxy-ethyl)-amino]-ethoxy}-quinazolin-4-ol trifluoroacetate salt] | 0.06 to 16
